Numbers after ± are expanded uncertainties.
Test: xn = mol fraction of the nth substance listed
Settings: Gas, Buoyancy - hydrostatic balance with magnetic suspension - one sinker

C [methane] + O=C=O
mass density (313.09 K, 17999 kPa, x2 = 0.2017): 188.702 ± 1.3 kg/m3 | mass density (313.1 K, 4001 kPa, x2 = 0.8988): 75.134 ± 0.34 kg/m3 | mass density (313.1 K, 4996 kPa, x2 = 0.3997): 58.587 ± 0.31 kg/m3 | mass density (313.1 K, 5996 kPa, x2 = 0.7985): 114.567 ± 0.59 kg/m3 | mass density (313.1 K, 7003 kPa, x2 = 0.7985): 142.512 ± 0.81 kg/m3 | mass density (313.1 K, 7006 kPa, x2 = 0.6015): 110.298 ± 0.59 kg/m3 | mass density (313.11 K, 7997 kPa, x2 = 0.7985): 174.464 ± 1.1 kg/m3 | mass density (313.11 K, 10000 kPa, x2 = 0.6015): 177.419 ± 1.1 kg/m3 | mass density (313.11 K, 12001 kPa, x2 = 0.0998): 102.596 ± 0.7 kg/m3 | mass density (313.11 K, 14997 kPa, x2 = 0.3997): 217.543 ± 1.4 kg/m3 | mass density (313.12 K, 7992 kPa, x2 = 0.8988): 206.745 ± 1.5 kg/m3 | mass density (313.12 K, 14996 kPa, x2 = 0.8988): 624.636 ± 5 kg/m3 | mass density (313.13 K, 4001 kPa, x2 = 0.0998): 30.822 ± 0.21 kg/m3 | mass density (313.13 K, 4002 kPa, x2 = 0.6015): 56.419 ± 0.28 kg/m3 | mass density (313.13 K, 5003 kPa, x2 = 0.8988): 100.174 ± 0.51 kg/m3 | mass density (313.13 K, 6004 kPa, x2 = 0.6015): 90.955 ± 0.46 kg/m3 | mass density (313.13 K, 9996 kPa, x2 = 0.7985): 256.481 ± 2.1 kg/m3 | mass density (313.13 K, 10003 kPa, x2 = 0.0998): 83.788 ± 0.56 kg/m3 | mass density (313.13 K, 11005 kPa, x2 = 0.3997): 149.559 ± 0.91 kg/m3 | mass density (313.14 K, 3998 kPa, x2 = 0.3997): 45.694 ± 0.25 kg/m3 | mass density (313.14 K, 7995 kPa, x2 = 0.6015): 130.852 ± 0.73 kg/m3 | mass density (313.14 K, 11000 kPa, x2 = 0.0998): 93.126 ± 0.64 kg/m3 | mass density (313.14 K, 11001 kPa, x2 = 0.2017): 110.189 ± 0.71 kg/m3 | mass density (313.14 K, 11001 kPa, x2 = 0.6015): 202.91 ± 1.4 kg/m3 | mass density (313.14 K, 15004 kPa, x2 = 0.7985): 485.573 ± 4 kg/m3 | mass density (313.15 K, 4004 kPa, x2 = 0.7985): 68.752 ± 0.32 kg/m3 | mass density (313.15 K, 5996 kPa, x2 = 0.3997): 72.099 ± 0.38 kg/m3 | mass density (313.15 K, 11997 kPa, x2 = 0.8988): 506.067 ± 5.7 kg/m3 | mass density (313.16 K, 5003 kPa, x2 = 0.7985): 90.396 ± 0.45 kg/m3 | mass density (313.16 K, 6996 kPa, x2 = 0.3997): 86.285 ± 0.47 kg/m3 | mass density (313.16 K, 18004 kPa, x2 = 0.6015): 375.856 ± 2.8 kg/m3 | mass density (313.17 K, 3002 kPa, x2 = 0.0998): 22.748 ± 0.18 kg/m3 | mass density (313.17 K, 5002 kPa, x2 = 0.6015): 73.052 ± 0.37 kg/m3 | mass density (313.17 K, 5997 kPa, x2 = 0.8988): 128.664 ± 0.75 kg/m3 | mass density (313.17 K, 8998 kPa, x2 = 0.6015): 153.28 ± 0.94 kg/m3 | mass density (313.17 K, 15002 kPa, x2 = 0.0998): 130.663 ± 0.91 kg/m3 | mass density (313.17 K, 18004 kPa, x2 = 0.0998): 157.443 ± 1.1 kg/m3 | mass density (313.17 K, 18005 kPa, x2 = 0.7985): 560.943 ± 4 kg/m3 | mass density (313.18 K, 8998 kPa, x2 = 0.8988): 265.242 ± 2.5 kg/m3 | mass density (313.18 K, 9004 kPa, x2 = 0.2017): 87.631 ± 0.55 kg/m3 | mass density (313.18 K, 11998 kPa, x2 = 0.6015): 229.134 ± 1.6 kg/m3 | mass density (313.18 K, 14996 kPa, x2 = 0.2017): 155.927 ± 1.1 kg/m3 | mass density (313.19 K, 5002 kPa, x2 = 0.0998): 39.114 ± 0.25 kg/m3 | mass density (313.19 K, 6000 kPa, x2 = 0.0998): 47.652 ± 0.32 kg/m3 | mass density (313.19 K, 8998 kPa, x2 = 0.3997): 116.64 ± 0.67 kg/m3 | mass density (313.19 K, 9995 kPa, x2 = 0.3997): 132.712 ± 0.78 kg/m3 | mass density (313.19 K, 10993 kPa, x2 = 0.7985): 305.994 ± 2.8 kg/m3 | mass density (313.19 K, 11992 kPa, x2 = 0.3997): 166.169 ± 1 kg/m3 | mass density (313.2 K, 3998 kPa, x2 = 0.2017): 35.711 ± 0.21 kg/m3 | mass density (313.2 K, 9001 kPa, x2 = 0.0998): 74.487 ± 0.49 kg/m3 | mass density (313.2 K, 9003 kPa, x2 = 0.7985): 212.239 ± 1.5 kg/m3 | mass density (313.2 K, 10990 kPa, x2 = 0.8988): 432.06 ± 5.6 kg/m3 | mass density (313.21 K, 5000 kPa, x2 = 0.2017): 45.475 ± 0.27 kg/m3 | mass density (313.21 K, 6999 kPa, x2 = 0.0998): 56.348 ± 0.37 kg/m3 | mass density (313.21 K, 8000 kPa, x2 = 0.0998): 65.323 ± 0.43 kg/m3 | mass density (313.21 K, 9999 kPa, x2 = 0.8988): 344.181 ± 4.2 kg/m3 | mass density (313.21 K, 14995 kPa, x2 = 0.6015): 308.146 ± 2.4 kg/m3 | mass density (313.21 K, 17995 kPa, x2 = 0.8988): 683.03 ± 5.1 kg/m3 | mass density (313.21 K, 17997 kPa, x2 = 0.3997): 264.841 ± 1.8 kg/m3 | mass density (313.22 K, 5999 kPa, x2 = 0.2017): 55.518 ± 0.34 kg/m3 | mass density (313.22 K, 6997 kPa, x2 = 0.8988): 163.201 ± 0.99 kg/m3 | mass density (313.22 K, 8000 kPa, x2 = 0.2017): 76.608 ± 0.47 kg/m3 | mass density (313.22 K, 11998 kPa, x2 = 0.2017): 121.576 ± 0.79 kg/m3 | mass density (313.22 K, 12000 kPa, x2 = 0.7985): 357.778 ± 3.4 kg/m3 | mass density (313.23 K, 7005 kPa, x2 = 0.2017): 65.96 ± 0.4 kg/m3 | mass density (313.24 K, 10003 kPa, x2 = 0.2017): 98.786 ± 0.63 kg/m3 | mass density (313.27 K, 8000 kPa, x2 = 0.3997): 101.088 ± 0.58 kg/m3 | mass density (333.06 K, 10002 kPa, x2 = 0.2017): 88.824 ± 0.55 kg/m3 | mass density (333.07 K, 4003 kPa, x2 = 0.7985): 62.105 ± 0.28 kg/m3 | mass density (333.07 K, 11999 kPa, x2 = 0.3997): 144.496 ± 0.83 kg/m3 | mass density (333.07 K, 17998 kPa, x2 = 0.2017): 166.841 ± 1.1 kg/m3 | mass density (333.08 K, 4997 kPa, x2 = 0.6015): 65.944 ± 0.32 kg/m3 | mass density (333.08 K, 5002 kPa, x2 = 0.3997): 53.475 ± 0.28 kg/m3 | mass density (333.08 K, 8999 kPa, x2 = 0.2017): 79.049 ± 0.49 kg/m3 | mass density (333.08 K, 9003 kPa, x2 = 0.3997): 103.555 ± 0.57 kg/m3 | mass density (333.08 K, 15000 kPa, x2 = 0.8988): 456.324 ± 4 kg/m3 | mass density (333.1 K, 5000 kPa, x2 = 0.0998): 36.091 ± 0.24 kg/m3 | mass density (333.11 K, 6004 kPa, x2 = 0.6015): 81.338 ± 0.4 kg/m3 | mass density (333.11 K, 11001 kPa, x2 = 0.2017): 98.605 ± 0.6 kg/m3 | mass density (333.12 K, 4001 kPa, x2 = 0.6015): 51.39 ± 0.27 kg/m3 | mass density (333.12 K, 4003 kPa, x2 = 0.2017): 33.068 ± 0.2 kg/m3 | mass density (333.12 K, 6995 kPa, x2 = 0.3997): 77.606 ± 0.41 kg/m3 | mass density (333.12 K, 9995 kPa, x2 = 0.3997): 116.802 ± 0.64 kg/m3 | mass density (333.12 K, 14999 kPa, x2 = 0.0998): 116.773 ± 0.77 kg/m3
